From PubChem BioAssay (NCI)
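Briefly, cells in 96-well plates were exposed to five compound concentrations for 48 h, and endpoints were estimated by linear interpolation. At the GI50, growth is halved. Definition used: TGI = concentration required for complete inhibition of growth.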

Key:
Experiment in all cases: NCI-60 cell line screen, 48 h
K-562 leukemia = test system: K-562 leukemia
MCF7 breast = test system: MCF7 breast
MDA-MB-231 breast = test system: MDA-MB-231 breast
NCI-H23 lung = test system: NCI-H23 lung
OVCAR-5 ovarian = test system: OVCAR-5 ovarian
SK-OV-3 ovarian = test system: SK-OV-3 ovarian
SNB-75 CNS = test system: SNB-75 CNS
SR leukemia = test system: SR leukemia
UACC-257 melanoma = test system: UACC-257 melanoma
UACC-62 melanoma = test system: UACC-62 melanoma

Structure (SMILES) | TGI (K-562 leukemia) | GI50 (MCF7 breast) | TGI (MCF7 breast) | GI50 (MDA-MB-231 breast) | TGI (MDA-MB-231 breast) | TGI (NCI-H23 lung) | TGI (OVCAR-5 ovarian) | TGI (SK-OV-3 ovarian) | TGI (SNB-75 CNS) | TGI (SR leukemia) | TGI (UACC-257 melanoma) | TGI (UACC-62 melanoma) | GI50 (K-562 leukemia) | GI50 (NCI-H23 lung) | GI50 (OVCAR-5 ovarian) | GI50 (SK-OV-3 ovarian) | GI50 (SR leukemia) | GI50 (UACC-257 melanoma) | GI50 (UACC-62 melanoma) | GI50 (SNB-75 CNS)
O=c1c2ccccc2n2n1CC(O)C2 (stereo unspecified) | > 100 µM | > 100 µM | > 100 µM | > 100 µM | > 100 µM | > 100 µM | > 100 µM | > 100 µM | > 100 µM | > 100 µM | > 100 µM |  |  |  |  |  |  |  |  | 
CCN1C(NN)=NS(=O)(=O)c2ccccc21 | > 100 µM |  | > 100 µM |  | > 100 µM | > 100 µM | > 100 µM | > 100 µM |  | > 100 µM | > 100 µM | > 100 µM |  |  |  |  |  |  |  | 
CCOC(=O)C1=C(O)CSC1=Nc1ccccc1 | > 100 µM |  |  |  |  | > 100 µM | > 100 µM | > 100 µM | > 100 µM | > 100 µM | > 100 µM | > 100 µM |  |  |  |  |  |  |  | 
O=C1N(c2ccccc2)C(=O)C2(SC=NN2Cc2ccccc2)N1c1ccccc1 (stereo unspecified) | > 100 µM |  |  |  |  | > 100 µM |  | > 100 µM | > 100 µM | > 100 µM | > 100 µM | > 100 µM |  |  |  |  |  |  |  | 
C[C@]12CCc3nonc3C1CC[C@@H]1C2CC[C@]2(C)NC(=O)CCC12 (stereo partly specified) | > 100 µM |  |  |  |  | > 100 µM | > 100 µM | > 100 µM | > 100 µM |  | > 100 µM | > 100 µM |  |  |  |  |  |  |  | 
CC(=O)c1cc2c(cc1Nc1c3ccccc3nc3occ(Cl)c13)OCO2 | > 100 µM | 0.0939 µM | > 100 µM | 0.283 µM | 0.613 µM | 2.23 µM | > 100 µM | > 100 µM |  | 1.06 µM | > 100 µM |  | 0.037 µM | 0.238 µM | 0.616 µM | 0.781 µM | 0.12 µM | > 100 µM | 0.271 µM | 
O=C1c2ccccc2C(=O)c2c(NCCNCCO)ccc(O)c21 | > 100 µM |  |  |  |  | 12 µM | 8.33 µM | 13.8 µM | 15.7 µM |  | 13.5 µM | 13.6 µM |  |  |  |  |  |  |  | 
CCOC(=O)C1=C(C)NC2SC(=O)/C(=C\c3ccccc3O)N2C1c1ccccc1 (stereo unspecified) | > 100 µM | 86 µM | > 100 µM | 33.8 µM | 88.4 µM | 53.5 µM | > 100 µM | > 100 µM | 70.8 µM |  | > 100 µM | 41.8 µM | 26.6 µM | 24.5 µM | 63 µM | 52.8 µM |  | 42.4 µM | 18 µM | 20.4 µM
COc1ccc(C(=O)C(C(=O)C(=O)Nc2ccc(Cl)c(Cl)c2)c2ccc(OC)cc2)cc1 (stereo unspecified) | > 100 µM |  |  |  |  | > 100 µM | > 100 µM |  | > 100 µM |  | > 100 µM | > 100 µM |  |  |  |  |  |  |  | 
CC(C)(C)c1[nH]cnc1/C=c1\[nH]c(=O)/c(=C/c2ccccc2)[nH]c1=O | > 100 µM | 0.0203 µM | 17 µM | 0.023 µM | 30.9 µM | 35.2 µM | 86.1 µM | 60.9 µM | 44 µM |  | 22.6 µM | 21.2 µM | < 0.01 µM | 0.03 µM | 0.0335 µM | < 0.01 µM |  | 6.32 µM | < 0.01 µM | < 0.01 µM
Cc1c(C(=O)C/C(=N/NC(=O)C[n+]2ccccc2)C(=O)Nc2ccccc2)[n+](=O)c2ccccc2n1O | > 100 µM |  |  |  |  | > 100 µM | > 100 µM | > 100 µM | > 100 µM | > 100 µM | > 100 µM | > 100 µM |  |  |  |  |  |  |  | 
O=c1cccccc1NCCCCCCNc1cccccc1=O | > 100 µM |  |  |  |  | > 100 µM | > 100 µM | > 100 µM | > 100 µM |  | > 100 µM | > 100 µM |  |  |  |  |  |  |  | 
CC(=O)O[C@]1(C)OC(=O)[C@@H](C)N1[N+](=O)[O-] | > 100 µM |  |  |  |  | > 100 µM | > 100 µM | > 100 µM | > 100 µM | > 100 µM | > 100 µM | > 100 µM |  |  |  |  |  |  |  | 
Cc1cccc(C(=O)/C=C/SC(=NC#N)SCc2ccccc2)c1 | > 100 µM | 34.3 µM | > 100 µM | 20 µM | 41.5 µM | 47 µM | 38.1 µM | > 100 µM |  | > 100 µM | 35.9 µM | 40.7 µM | 22 µM | 20.9 µM | 19.4 µM | > 100 µM | 3.99 µM | 18.1 µM | 19.4 µM | 
C/C1=C/C2=CC(C)C[C@@H]2C(=O)[C@]2(C)C(=O)CC(C)(C)[C@H]2CC1=O (stereo partly specified) | > 50 µM |  | > 50 µM |  | > 50 µM | > 50 µM | > 50 µM | > 50 µM | > 50 µM |  | > 50 µM | > 50 µM |  |  |  |  |  |  |  | 
CN[C@@H](C)[C@@H](N)c1ccccc1 | > 100 µM |  |  |  |  | > 100 µM |  | > 100 µM | > 100 µM |  | > 100 µM | > 100 µM |  |  |  |  |  |  |  | 
CC/C(=C(/CC)c1ccc([O-])cc1)c1ccc([O-])cc1.CC/C(=C(\CC)c1ccc([O-])cc1)c1ccc([O-])cc1.O=C([CH-]C(=O)c1ccccc1)c1ccccc1.O=C([CH-]C(=O)c1ccccc1)c1ccccc1.O=C([CH-]C(=O)c1ccccc1)c1ccccc1.O=C([CH-]C(=O)c1ccccc1)c1ccccc1.[Ti+4].[Ti+4] | > 100 µM |  |  |  |  | 97.3 µM | > 100 µM | 74.4 µM |  | > 100 µM | > 100 µM | 52.4 µM | 23.9 µM | 25.9 µM | 45.8 µM | 30.8 µM | 58.5 µM | 28 µM | 18.9 µM | 
COc1c(NC(C)=O)cc(C)cc1NC(C)=O | > 100 µM |  |  |  |  |  |  | > 100 µM | > 100 µM | > 100 µM | > 100 µM | > 100 µM |  |  |  |  |  |  |  | 
CC(=O)c1c(C)n(C)c2c1nnc1ccccc12 |  |  | 86.3 µM |  | > 100 µM | > 100 µM |  | > 100 µM |  |  | > 100 µM | > 100 µM |  |  |  |  |  |  |  | 
COC(=O)C1=C(C(=O)OC)C23CC1C1C(C(=O)OC)=C(C(=O)OC)C12C1C=CC3C2C(=O)OC(=O)C21 (stereo unspecified) | > 100 µM |  |  |  |  | > 100 µM | > 100 µM |  | 47.7 µM |  | > 100 µM | > 100 µM |  |  |  |  |  |  |  | 
